GI50 and TGI data for 8 compounds are collected here from PubChem BioAssay (NCI).

Where “and” joins values, the source holds several entries; their conditions need not be identical. Equal values may be shown once.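 96-well plates; 48 h exposure; 5 concentrations. Endpoints by linear interpolation between flanking doses. Not reached: highest tested concentration assigned. GI50 marks 50% less growth. Definition used: TGI = concentration required for complete inhibition of growth.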

Test systems include 786-0 renal; ACHN renal; COLO 205 colon; EKVX NSCLC; HCT-116 colon; HCT-15 colon; HOP-62 NSCLC; KM12 colon; MALME-3M melanoma; SN12C renal.
Holding throughout (experiment): NCI anticancer screen, dose series, 48 h

Take `O=C1c2ccccc2-c2c1c1c(O)cccc1n2-c1ccccc1`: the GI50 in the test on 786-0 renal was 62.2 µM; with ACHN renal it was more than 100 µM; in the test with COLO 205 colon, more than 100 µM; in the test on EKVX NSCLC, more than 100 µM; with HCT-116 colon it was more than 100 µM; in the test with HCT-15 colon, more than 100 µM. The GI50 in the test on HOP-62 NSCLC was 66.3 µM; in the test with KM12 colon it was more than 100 µM; in the test with MALME-3M melanoma, more than 100 µM; with SN12C renal, more than 100 µM. For the same compound, the TGI in the test on 786-0 renal, in the test with ACHN renal, in the test on COLO 205 colon, with EKVX NSCLC, with HCT-116 colon and in the test with HCT-15 colon was more than 100 µM each time. For the same compound, the TGI in the test on HOP-62 NSCLC, with KM12 colon, in the test on MALME-3M melanoma and in the test with SN12C renal was more than 100 µM each time.

Turning to `O=C(Nc1nc2ccc(F)cc2s1)c1cccnc1Nc1ccc(Cl)cc1`, the GI50 with 786-0 renal was 2.93 µM; with ACHN renal, 3.08 µM; in the test on COLO 205 colon, 1.72 µM; in the test on EKVX NSCLC it was 2.45 µM; in the test on HCT-116 colon it was 1.99 µM; in the test on HCT-15 colon, 2.74 µM. Also, the GI50 with HOP-62 NSCLC is 2.55 µM; in the test on KM12 colon, 2.61 µM; in the test on MALME-3M melanoma, 2.22 µM; in the test on SN12C renal it was 2.63 µM. Besides, the TGI in the test with 786-0 renal was more than 100 µM; with ACHN renal it was more than 100 µM; in the test on COLO 205 colon it was 3.48 µM; with EKVX NSCLC it was more than 82.6 µM; in the test with HCT-116 colon, more than 29.2 µM; with HCT-15 colon, more than 100 µM. For the same compound, the TGI with HOP-62 NSCLC is 9.08 µM; with KM12 colon, 8.54 µM; with MALME-3M melanoma it was more than 27 µM; in the test with SN12C renal, more than 100 µM.

Consider `O=c1oc(=O)c2oc3ccccc3oc1=2`, for which the TGI in the test on 786-0 renal, in the test with ACHN renal, in the test with COLO 205 colon, in the test on EKVX NSCLC, in the test with HCT-116 colon and with HCT-15 colon was more than 100 µM each time. Further, the TGI with HOP-62 NSCLC, in the test on KM12 colon, in the test on MALME-3M melanoma and in the test on SN12C renal was more than 100 µM throughout.

On to `CC1(C)CCC(C)(C)c2c1ccc(O)c2Cc1c(O)ccc2c1C(C)(C)CCC2(C)C`, for which the TGI with 786-0 renal came out at 3.61 µM; with ACHN renal, 3.19 µM; in the test on COLO 205 colon, 4.44 µM; with EKVX NSCLC, 9.16 µM; with HCT-116 colon it was 4.2 µM; in the test on HCT-15 colon it was 3.98 µM. The TGI with HOP-62 NSCLC worked out at 4.1 µM; in the test with KM12 colon, 3.91 µM; in the test with MALME-3M melanoma, 6.6 µM; with SN12C renal, 3.31 µM.

`C/C(=C(\c1ccc(OCCN2CCCCCC2)cc1)c1ccc(OC(=O)Cc2ccccc2)cc1)c1ccc(Cl)cc1`: the GI50 is 1.78 µM in the test on 786-0 renal; 2.63 µM in the test on ACHN renal; 2.8 µM with COLO 205 colon; 2.6 µM in the test on EKVX NSCLC; 1.32 µM with HCT-116 colon; 1.79 µM in the test with HCT-15 colon. Also, the GI50 is 2.67 µM in the test on HOP-62 NSCLC, 2.72 µM in the test with KM12 colon, 2.86 µM in the test with MALME-3M melanoma and 2.56 µM with SN12C renal. The TGI is 3.85 µM in the test with 786-0 renal; 4.93 µM with ACHN renal; 5.56 µM in the test with COLO 205 colon; 7.8 µM with EKVX NSCLC; 3.47 µM in the test with HCT-116 colon; 4.26 µM in the test on HCT-15 colon. Moreover, the TGI in the test on HOP-62 NSCLC was 5.59 µM; with KM12 colon, 5.77 µM; in the test on MALME-3M melanoma it was 5.71 µM; in the test on SN12C renal, 5.07 µM.

For the compound `COc1cc(OC)c(NC(=O)c2cc3ccccc3cc2O)cc1Cl`, the GI50 in the test with 786-0 renal is 4.51 µM; in the test with ACHN renal, 2.51 µM; in the test with COLO 205 colon it was 3.91 µM; in the test with EKVX NSCLC it was 2.22 µM; with HCT-116 colon, 2.91 µM; with HCT-15 colon, 3.38 µM. Moreover, the GI50 with HOP-62 NSCLC is 1.98 µM; in the test with KM12 colon, 3.07 µM; with MALME-3M melanoma, 1.89 µM; in the test with SN12C renal, 2.26 µM. Also, the TGI in the test with 786-0 renal was more than 100 µM; with ACHN renal, 7.19 µM; with COLO 205 colon, 14.5 µM; with EKVX NSCLC, 28 µM; in the test with HCT-116 colon it was 10.1 µM; in the test with HCT-15 colon it was 19.4 µM. Besides, the TGI in the test with HOP-62 NSCLC worked out at 6.84 µM; in the test on KM12 colon, 11.4 µM; in the test on MALME-3M melanoma, 6.04 µM; with SN12C renal it was 7.67 µM.

For `CN(C)CCOC(c1ccccc1)c1ccccc1`, the GI50 in the test with 786-0 renal is 35.1 µM; in the test with COLO 205 colon, 14 µM; in the test on HCT-116 colon, 32.1 µM; in the test on HCT-15 colon it was 36.7 µM; with HOP-62 NSCLC, 36 µM; with KM12 colon it was 32.8 µM. Further, the figures for the GI50 with MALME-3M melanoma and with SN12C renal were 25.2 µM and 34.6 µM, respectively. The TGI was 49.8 µM and > 100 µM with 786-0 renal; more than 100 µM with ACHN renal; 28.3 µM and > 100 µM with COLO 205 colon; more than 100 µM in the test with EKVX NSCLC; 48.7 µM and > 100 µM with HCT-116 colon; 51.5 µM and > 100 µM with HCT-15 colon. Moreover, the TGI with HOP-62 NSCLC was 50.9 µM and > 100 µM; in the test on KM12 colon, 68.1 µM and > 100 µM; in the test with MALME-3M melanoma, 46 µM and > 100 µM; with SN12C renal, 50.2 µM and > 100 µM.

Take `COc1ccc(CNc2nc3cc(N)cc(N)c3nc2-c2ccccc2)cc1`: the GI50 was 15.1 µM in the test with 786-0 renal; 14.9 µM in the test on ACHN renal; 15.5 µM in the test on COLO 205 colon; 14.9 µM in the test with EKVX NSCLC; 14.4 µM in the test on HCT-116 colon; 15.9 µM with HCT-15 colon. The GI50 with HOP-62 NSCLC is 17.2 µM; in the test on KM12 colon, 13.3 µM; in the test with MALME-3M melanoma it was 10.7 µM; in the test on SN12C renal, 16.8 µM. The TGI in the test with 786-0 renal was 41.4 µM; with ACHN renal, 33.6 µM; in the test on COLO 205 colon, 34.1 µM; in the test with EKVX NSCLC, 28.2 µM; in the test with HCT-116 colon, 27.5 µM; in the test on HCT-15 colon, 34.5 µM. In addition, the TGI in the test on HOP-62 NSCLC was 34.3 µM; with KM12 colon it was 26.1 µM; with MALME-3M melanoma, 22.5 µM; in the test with SN12C renal, 34.3 µM.
